Data taken from article PMC9227096, “Design, Synthesis, and In Vitro, In Silico and In Cellulo Evaluation of New Pyrimidine and Pyridine Amide and Carbamate Derivatives as Multi-Functional Cholinesterase Inhibitors” (Pharmaceuticals, 2022).
Read-outs that look alike come from different tables or passages of the source.

Assays:
equine BChE (eqBChE) = biological target: T1, equine BChE (eqBChE) (Equus caballus, UniProt P81908); experiment: Ellman's spectrophotometric method, percent inhibition of eqBChE (zero time and after 1 h incubation); assay type: biochemical; settings: read-out: % Inhibition vs. eqBChE ± SD; for inhibition at 9 µM: [I] 9 µM
T1 construct: purchased Sigma-Aldrich (Milan, Italy)
Experimental: Regarding the synthesized compounds enzymatic inhibition studies were carried out on Electrophorus electricus AChE (EeAChE) and equine BChE (eqBChE), according to Ellman’s spectrophotometric method.
All other chemical and biological reagents and solvents used were of the highest analytical, commercially available grade. The water, utilized for the preparation of the phosphate buffer and of the solutions of compounds, was distilled and filtered on nylon membrane filters with 0.2 μm pore size with the Millipore® Filtration apparatus before each use. Micropipettes Labmate (BRAND Dig. 10–100 μL; Dig. 100–1000 μL; Dig. 0.1–2 μL) and Transferpette (HIGH TECH LAB LM200: 20–200 μL; LM5000: 1000–5000 μL) were used to collect the samples. The assays were carried out by double beam UV–Vis Lambda 40 Perkin Elmer spectrophotometer, using optical polystyrene cuvettes (10 × 10 × 45 mm, 340–800 nm optical transparency), each measure was repeated at least in triplicate. […] Vivaspin® 2 Sartorius, with a membrane of 3000 MWCO (molecular weight cutoff) consisting of polyethersulfone (PES), cellulose triacetate (CTA) and hydrosart, was used for the ultrafiltration procedures. An ALC PK110 bench-top centrifuge was used for centrifugation. The spectrophotometric method of Ellman, with minor modifications, was used to evaluate the inhibition of cholinesterase enzymes. […] EeAChE and eqBChE were periodically tested to evaluate the effective enzymatic activity.
An amount of 3.0 mL of a solution in 0.1 M phosphate buffer (pH = 7.4) containing DTNB (0.25 mM) and EeAChE (0.083 UmL^−1) or eqBChE (0.083 UmL^−1) were placed in a polystyrene cuvette of 1.0 cm path length; 1 µL of a solution in DMSO of the tested compound was added to obtain in cuvette concentration range 9 µM–0.09 µM. With this solution the blank was made.
Each experiment was repeated at least in triplicate.
The cuvettes were prepared consecutively at intervals of 3 min to allow equal incubation times.

[1] = Chelation studies: UV-Vis titration and Job's plot; assay type: physicochemical; settings: for chelating ability on the biometals Fe^3+, Cu^2+ and Zn^2+: UV-Vis spectra in MeOH, ligand/metal ratio 1:3, 1:5 or 1:10
Experimental: Initially, the UV–Vis spectrum of the ligand was recorded and compared with the spectra obtained by adding an excess of metal to the ligand solution, maintaining the same concentration of the ligand (ligand/metal ratio 1:3, 1:5 or 1:10). The variation of the UV–Vis spectrum of the ligand in presence of metal ions is indicative of the formation of the complex. […] As previously supposed, the chelating activity of these compounds is due to the presence of two adjacent nitrogen atoms in the 2-amino-pyridine moiety.
UV–Vis titrations of these compounds were carried out with the metal ions with which they form complexes, recording first the UV–Vis spectrum of the ligand and then the spectra obtained by mixing solutions of ligand and metal according to increasing metal/ligand molar ratios (Figure 7a).
The stoichiometries of metal–ligand complexes were determined through Job’s method.
The mole fraction X, which causes the maximum variation of absorbance, is extracted from the graph and then the value of the coefficient n, which corresponds to the number of ligand molecules per cation, is obtained (Figure 7b). The UV–Vis titrations spectra and the Job’s plots of all tested compound are reported in the Supplementary Materials (Figures S8–S17), while the data extrapolated from Job’s plots are summarized in Table 5.
For the UV–Vis titration, solutions 10^−3 M in MeOH of compounds 12, 14 and 18 were prepared. […]. UV–Vis spectra were recorded from 210 to 450 nm.
For the first measure, 150 µL of ligand solution were diluted in 2.85 mL of MeOH into sample cuvette, while only MeOH was placed in reference cuvette and the UV–Vis spectrum was recorded. For subsequent measurements, 2.85 mL of the opportune metal solution were placed both in a sample cuvette and in a reference cuvette; then 150 µL of ligand solution were added to a sample cuvette, while 150 µL of MeOH were added to the reference cuvette and the UV–Vis spectra were recorded. The spectra thus obtained were superimposed to observe the variations present between the ligand alone and in presence of increasing amount of metal.
To determine the stoichiometric coefficients of the complexes, Job’s method was used, which requires the mixing, in appropriate proportions, of the equimolar solution of metal ion and ligand, so that the final volume and the total moles present in the cuvette are equal for each measurement. The absorbance values were recorded at the wavelengths, extrapolated from the UV–Vis titration spectra, where the maximum variation of absorbance was observed. At the same time two solutions in MeOH of equal concentration were prepared, one of ligand and one of metal ion, diluting the solutions 1 M of CuSO4·5H2O and Zn(NO3)2·6H2O and 0.1 M of FeCl3·6H2O previously prepared. The concentrations of the solutions used and the wavelengths in which the absorbance was recorded were: 2.96·10^−4 M for 12 and Fe^3+–251, 320 nm; 2.83·10^−4 M for 14 and Fe^3+–250, 310 nm; 2.90·10^−4 M for 18 and Fe^3+–245, 310 nm; 6.00·10^−4 M for 18 and Cu^2+–330 nm.
For each determination 9–20 measurements were made, introducing the appropriate volumes of metal and ligand solutions in the sample cuvette to obtain mole fractions of the ligand in the range 0.1–0.9, while appropriate volumes of ligand solution and MeOH were placed in the reference cuvette, to obtain the same concentration of ligand in the sample cuvette. The absorbance values of the metal ion, calculated by the Lambert–Beer relation, known the extinction coefficients ε of the metal ion at used wavelengths and the nominal concentrations of the metal ion for each measure, were algebraically subtracted from the recorded absorbance values, in order to obtain the exclusive absorbance variations due to the complex formation. […]

MTT cell viability assay = assay type: cell-based; settings: human, U-87 MG glioblastoma astrocytoma cells, U-87 MG cells; for viability at 24 h, 10 µM: 10 µM (12 and 18: up to 10 µM)
Experimental: Compounds 12, 14 and 18 were tested to evaluate the cytotoxic effects on U-87 MG Cell Line from human brain (glioblastoma astrocytoma) at concentration ranging from 1 to 50 µM.
The compounds 12, 14 and 18 were evaluated for cell viability effects using the MTT assay. Briefly, U-87 MG Cell Line from human brain (glioblastoma astrocytoma) (ATCC, Manassas, VA, USA) were seeded into 96-well microtiter plates (NunclonTM, Nunc, Germany) at a density of 1.5 × 10^4 cells/well. […]. After an incubation time of 24 h, the medium was replaced by a new, fresh medium containing 0.5 mg/mL MTT (Sigma, Deisenhofen, Germany). After 2 h at 37 °C in 5%, CO2 unreacted dye was removed and the cells were dissolved by DMSO (Merck, Darmstadt, Germany). Absorbance was read at 570 nm by a microtiter spectrophotometer plate reader. The data were expressed as absorbance relative to untreated cells in the same experiment and standardized to 100%. All data points were performed in triplicate and at least three independent experiments.

[2] = [I] 900 nM, 0.0833 U/mL enzyme, 100 µM acetylthiocholine
[3] = 0.0833 U/mL enzyme, 100 µM acetylthiocholine

T1 sequence (P81908 whole entry): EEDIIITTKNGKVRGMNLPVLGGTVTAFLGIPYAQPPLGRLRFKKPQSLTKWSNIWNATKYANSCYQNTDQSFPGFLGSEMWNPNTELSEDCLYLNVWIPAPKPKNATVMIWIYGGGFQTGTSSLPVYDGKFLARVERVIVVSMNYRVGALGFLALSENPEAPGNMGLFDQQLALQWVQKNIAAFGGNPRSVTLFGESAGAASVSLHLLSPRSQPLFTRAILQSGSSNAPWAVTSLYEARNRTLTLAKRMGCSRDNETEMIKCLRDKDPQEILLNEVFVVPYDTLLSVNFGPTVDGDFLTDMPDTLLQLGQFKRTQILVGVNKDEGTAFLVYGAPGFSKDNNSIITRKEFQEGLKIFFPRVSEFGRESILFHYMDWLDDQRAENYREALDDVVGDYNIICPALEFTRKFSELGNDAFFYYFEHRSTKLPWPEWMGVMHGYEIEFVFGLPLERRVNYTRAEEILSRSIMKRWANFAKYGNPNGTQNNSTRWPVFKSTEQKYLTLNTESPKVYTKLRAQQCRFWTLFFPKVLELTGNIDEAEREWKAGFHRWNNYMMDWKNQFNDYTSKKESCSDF

With `O=C(NCCCCCCNc1ccccn1)c1ccccc1` [Compound 12, N-(6-(pyridin-2-ylamino)hexyl)benzamide] the inhibition at 0.9 µM (equine BChE (eqBChE); [2]) was 22%, the inhibition at 9 µM (equine BChE (eqBChE); [3]) was 81% and the “X (mole fraction that causes the maximum variation of absorbance), Fe^3+” value ([1]; Job's plot) was 0.69. For the same compound, the “n (number of ligand molecules per cation), Fe^3+” value ([1]; Job's plot) was 2, the “chelating ability on the biometals Fe^3+, Cu^2+ and Zn^2+” value (shortened to “chelating ability”) [1] was “ability to chelate Fe^3+ and Cu^2+ ions” and the viability at 24 h, 10 µM (MTT cell viability assay) was over 90%. It also gave a viability at 24 h, 50 µM (MTT cell viability assay) of over 35%.

For `O=C(Cc1ccc(Oc2ccccc2)cc1)NCCCCCCNc1ccccn1` [Compound 14, 2-(4-phenoxyphenyl)-N-(6-(pyridin-2-ylamino)hexyl)acetamide], the inhibition at 0.9 µM (equine BChE (eqBChE); [2]) was 45%, the inhibition at 9 µM (equine BChE (eqBChE); [3]) was 88% and the “X (mole fraction that causes the maximum variation of absorbance), Fe^3+” value ([1]; Job's plot) was 0.70. The “n (number of ligand molecules per cation), Fe^3+” value ([1]; Job's plot) was 2, the “chelating ability” value [1] was “ability to chelate Fe^3+ and Cu^2+ ions” and the viability at 24 h, 10 µM (MTT cell viability assay) was over 65%. For the same compound, the viability at 24 h, 50 µM (MTT cell viability assay) was over 30%.

In the case of `O=C(NCCCCCCNc1ccccn1)Oc1ccccc1` [Compound 18, Phenyl (6-(pyridin-2-ylamino)hexyl)carbamate], the inhibition at 0.9 µM (equine BChE (eqBChE); 1 h, [I] = 900 nM, t = 1 h incubation at 25 °C) is reported as 79.6 ± 5.3%, the “X (mole fraction that causes the maximum variation of absorbance), Cu^2+” value ([1]; Job's plot, Cu^2+) is reported as 0.49 and the “n (number of ligand molecules per cation), Cu^2+” value ([1]; Job's plot, Cu^2+) is reported as 1. For the same compound, the “X (mole fraction that causes the maximum variation of absorbance), Fe^3+” value ([1]; Job's plot) was 0.69, the “n (number of ligand molecules per cation), Fe^3+” value ([1]; Job's plot) was 2 and the “chelating ability” value [1] was “ability to chelate Fe^3+ and Cu^2+ ions”. For the same compound, the viability at 24 h, 10 µM (MTT cell viability assay) was over 90% and the viability at 24 h, 50 µM (MTT cell viability assay) was over 35%.
